Measured values taken from PubChem BioAssay AID493102 (Broad Institute, 2011).

These compounds were tested on SK-MEL-5 TRPM1-promoter luciferase reporter, 24 h (assay: TRPM1 promoter luciferase signal decrease, dose response, MITF inhibitor project, cell-based, SK-MEL-5, cherry-picked, set 4 (AID 493102);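 note: actives lower the luciferase signal so the potency reflects inhibition of reporter expression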).

Structure (SMILES) | AC50
O=C(Cn1ncc(Cl)c(Cl)c1=O)NCC1CCCCC1 | 7.39 µM
Cc1ccc(C)c(C(=O)Cn2ncc(Cl)c(Cl)c2=O)c1 | 14.5 µM
CC(C)(C)C(=O)Cn1ncc(Br)c(Br)c1=O | 3.92 µM
COc1cc2c(cc1OC)C(SC)=NC1(CCCC1)C2 | 9.44 µM
Oc1ccc(CNc2ccccc2F)c2cccnc12 | 15.1 µM
CC(=O)N(C)C1=C(N2CCOCC2)C(=O)c2ccccc2C1=O | 3.5 µM
CC[n+]1c(/C=C/N(C)c2ccccc2)sc2ccc(Cl)cc21 | 9.07 µM
O=C(NCC1CCCCC1)C1(CC2CC(c3cccc(Br)c3)=NO2)CCNCC1 (stereo not given) | 18.1 µM
CC(NC(=O)C12CC3CC(CC(C3)C1)C2)C(=O)NN=Cc1ccc([N+](=O)[O-])o1 (stereo not given) | 7.79 µM
O=C(Cn1cc(/C=C\[N+](=O)[O-])c2ccccc21)Nc1ccccc1 | 7.46 µM
CCOC(=O)N1CCC(NC(=O)C2CCCN(Cc3nc(-c4cccc(C)c4)oc3C)C2)CC1 (stereo not given) | 34.9 µM
N#C/C(=C\C=C\c1ccccc1[N+](=O)[O-])C(=O)NCc1ccccc1 | 14.7 µM
Cc1ccc(Cn2c(=N)n(CC(=O)c3ccc([N+](=O)[O-])cc3)c3ccccc32)cc1 | 6.42 µM
CCC(C)(C)c1ccc(OCCCC[n+]2ccccc2)c(C(C)(C)CC)c1 | 4.35 µM
CCCCn1c(=N)n(CCOc2ccc(C)cc2)c2ccccc21 | 11.3 µM
Cn1cc(C(=O)CCl)c2ccccc21 | 8.48 µM
O=C(Nc1ccc2nc3n(c(=O)c2c1)CCCC3)c1cc([N+](=O)[O-])ccc1F | 11.5 µM
O=C(N/N=C\c1ccc([N+](=O)[O-])s1)c1cncc(Br)c1 | 4.34 µM
COc1cccc(C(=O)Nc2ccc3c(cc2=O)[C@@H](NC(C)=O)CCc2cc(OC)c(OC)c(OC)c2-3)c1 | 8.43 µM
C#CC(=O)N(c1ccc(OC)c(OC)c1)C(C(=O)NC1CCCC1)c1cccs1 (stereo not given) | 3.31 µM
COc1ccc(C(=O)/C=C/Nc2ccccn2)cc1 | 3.72 µM
Cc1nc(Sc2nnnn2C)c2c3c(sc2n1)CCC3 | 4.98 µM
COc1cccc(N2CCN(C(=O)c3ccc(CS(=O)c4ccccc4Cl)o3)CC2)c1 (stereo not given) | 0.894 µM

Structure (SMILES) | AC50
O=C1/C(=C/c2ccccc2[N+](=O)[O-])COc2ccccc21 | 9.8 µM
O=C(Cn1ncc(Cl)c(Cl)c1=O)N1CCc2ccccc21 | 6.1 µM
COc1ccc(Br)cc1/C=C/C(=O)c1ccc(NC(C)=O)cc1 | 4.63 µM
O=C(CNC(=O)c1ccccc1)N/N=C/c1ccc([N+](=O)[O-])s1 | 5.34 µM
CCOc1ccc(NC(=O)c2ccccn2)cc1 | 4.4 µM
Clc1ccc(-c2c[n+](Cc3cccc(Cl)c3)c3n2CCC3)cc1 | 8.77 µM
Cc1ccc(C(=O)N/N=C/c2ccc([N+](=O)[O-])s2)cc1 | 2.2 µM
COc1ccc(N(Cc2cc(=O)[nH]c3ccccc23)C(=O)CCl)cc1 | 10.9 µM
O=C(CSCC(=O)Nc1ccccc1)N/N=C/c1c(O)ccc2ccccc12 | 3.33 µM
COc1ccc(NC(=O)CCC(=O)N/N=C/c2ccc([N+](=O)[O-])s2)cc1 | 7.62 µM
O=C1Nc2cc(C(=O)NCCN3CCCCCC3)ccc2S/C1=C\c1ccccc1 | 9.78 µM
Cc1oc(-c2ccc(Cl)cc2)nc1CN1CCC(C(=O)NCCCN2CCCC(C)C2)CC1 (stereo not given) | 13.2 µM
COc1cc(/C=C/C(=O)N2CCC=CC2=O)cc(OC)c1OC | 7.4 µM
Cc1nc2ccccn2c1C(=O)/C=C/c1cccc([N+](=O)[O-])c1 | 6.9 µM
Cc1cc(C=C2C(=O)c3ccccc3C2=O)c(C)n1-c1ccccc1 | 3.78 µM
CCc1ccc(NC2=CC(=O)C(=O)c3ccccc32)cc1 | 3.59 µM
O=C(N/N=C\c1ccc([N+](=O)[O-])o1)C1COc2ccccc2O1 (stereo not given) | 7.21 µM
[2H]C(CCOS(N)(=O)=O)c1ccc(C(C)(C)C)cc1 (stereo not given) | 0.487 µM
Cc1cc(C)c2c(N)c3cccc(C)c3nc2n1 | 3.21 µM
Cc1cc(C)c[n+](C2=C([O-])c3ccccc3C(=O)/C2=N\S(=O)(=O)c2cccs2)c1 | 2.95 µM
Cn1cc(C(=O)N/N=C/c2c(O)ccc3ccccc23)ccc1=O | 2.55 µM
Cc1cc(C(=O)CSc2nnc3ccccn23)c(C)n1-c1ccccc1 | 2.08 µM
O=[N+]([O-])c1ccc(/C=N/n2cnc3ccccc32)s1 | 6.25 µM

Structure (SMILES) | AC50
Cc1cccc(NC(=O)CNC(=O)Cn2ncc(Cl)c(Cl)c2=O)c1C | 13.4 µM
CCOC(=O)c1[nH]cnc1N=Nc1c(O)ccc2ccccc12 | 3.76 µM
CCCCCn1c(=O)c(C(=O)Nc2cnccn2)c(O)c2ccccc21 | 5.93 µM
CC(=O)N(\C=C/C=C/C=C1\Sc2ccccc2C1=O)c1ccccc1 | 8 µM
COc1ccc(C(=O)/C=C/C(=O)N(CC(=O)NC2CCCCC2)CC2CCCO2)c(O)c1 (stereo not given) | 4.01 µM
CN(C)C1CCN(Cc2cc(COCc3ccccc3)c3cccnc3c2O)C1 (stereo not given) | 9.99 µM
CCOc1ccc(NC(=O)Nc2cccc(C(=O)O)c2)cc1 | 1.53 µM
Cc1cc(C(=O)CN2C(=O)c3ccccc3S2(=O)=O)c(C)n1-c1ccccc1 | 3.45 µM
O=C(/C=C\c1ccccc1)NCC(=O)N/N=C/c1ccc(O)cc1O | 7.99 µM
CN(C)c1ccc(/C=C2\SC(=O)N(CCc3nnc(N)s3)C2=O)cc1 | 2.54 µM
COc1ccc(C(=O)N/N=C/c2cc(Br)ccc2O)cc1OC | 4.76 µM
COc1ccc(C(=O)/C=C/C(=O)N(CC(=O)NC2CCCCC2)Cc2ccc(F)cc2)c(O)c1 | 5.45 µM
NCCCNc1nc(N)c([N+](=O)[O-])c(NC2CCCCC2)n1 | 6.36 µM
CCCCN1CCc2c1nc1ccc(Br)cc1c2N | 12.2 µM
O=[N+]([O-])c1ccc(/C=N/n2c(CO)nc3ccccc32)s1 | 1.98 µM
N#CC(C#N)=C1C=CC=CN1/C(=C\c1ccco1)C(=O)c1ccc(Br)cc1 | 5.59 µM
CCOc1ccc2nc(C)cc(Nc3cccc([N+](=O)[O-])c3)c2c1 | 17.8 µM
CN(C)CCNc1ccc2nnn3c4ccc(O)cc4c(=O)c1c23 | 4.73 µM
O=C(O)c1cccc(NC(=S)N/N=C/c2ccccn2)c1 | 8.63 µM
CC1CCN(CC(CS(=O)(=O)c2ccc([N+](=O)[O-])cc2)N2CCC(C)CC2)CC1 (stereo not given) | 6.62 µM
Cc1ccc(NC(=O)c2cc3ccccc3oc2=O)cc1S(=O)(=O)N(C)C | 0.03 µM
COc1cccc(NC(=O)Nc2cccc(C(=O)O)c2)c1 | 2.37 µM
CCOc1cc(/C=N/Nc2cccc(C(=O)O)c2)ccc1OC(=O)c1ccccc1 | 1.38 µM

Structure (SMILES) | AC50
COc1cccc(CNCCc2c[nH]c3ccccc23)c1OCc1ccccc1 | 14.4 µM
O=C(Nc1ccc(Cl)cc1)Nc1cccc(C(=O)O)c1 | 3.79 µM
CCN(CC)CCC(=O)N1C/C(=C/c2ccccc2)C(=O)/C(=C\c2ccccc2)C1 | 4.72 µM
C/C(=N\NC(=O)COc1ccccc1-c1ccccc1)c1ccccn1 | 4.58 µM
CN(C(=O)/C=C/c1ccc([N+](=O)[O-])s1)c1ccccc1 | 9.11 µM
Cc1ccc(-c2nnc(SCC(=O)Nc3ccccc3F)o2)cc1 | 2.3 µM
CCCc1ccc(-c2ccc(/C=C/C(=O)O)cc2)nc1 | 0.039 µM
O=C(/C=C/c1ccc([N+](=O)[O-])s1)N1CCCCC1 | 4.16 µM
CCOC(=O)N1C(=O)[C@@](CC)(c2ccccc2)N1C(=O)OCC | 12.5 µM
COc1cc(NC(=O)c2[nH]cnc2C(N)=O)cc(C(=O)Nc2cccc(C(F)(F)F)c2)c1 | 10.9 µM
O=C(O)c1ccc(N/N=C/c2ccc(OC(=O)c3cccc(Cl)c3)cc2)cc1 | 3.21 µM
O=C(COc1ccccc1)N/N=C/c1ccc([N+](=O)[O-])o1 | 21.5 µM
O=C1NC(=O)N(c2ccccc2)C(=O)/C1=C/C=C/c1ccco1 | 8.29 µM
O=C(Cn1ncc(Cl)c(Cl)c1=O)c1ccc(Cl)cc1 | 8.81 µM
O=C(N/N=C/c1ccc([N+](=O)[O-])s1)c1ccccc1Br | 3.65 µM
N#C/C(=C\c1ccc(OCc2ccc(C(=O)O)cc2)cc1)C(=O)N1CCOCC1 | 1.19 µM
CC(C)C(=O)NC(c1ccco1)c1ccc2cccnc2c1O (stereo not given) | 8.18 µM
Cc1ccc(NC(=O)/C=C/c2ccc([N+](=O)[O-])s2)c(C)c1 | 4.64 µM
COc1cc2c(cc1O)C(SC)=NC(C)(C)C2 | 11.3 µM
CC(C)(C)NC(=O)CCN(/N=C/c1ccc([N+](=O)[O-])o1)C1=NS(=O)(=O)c2ccccc21 | 7.18 µM
CCCCCCn1c(=O)c(C(=O)Nc2cnccn2)c(O)c2ccccc21 | 3.68 µM
CCOc1cc(/C=C\[N+](=O)[O-])ccc1OCC(=O)N1CCOCC1 | 7.35 µM
COc1ccc2[nH]cc(C(=O)CCl)c2c1 | 5.65 µM

Structure (SMILES) | AC50
CCN1CCN(c2ccc(NC(=O)c3ccc([N+](=O)[O-])o3)cc2Cl)CC1 | 9.54 µM
Nc1nc2ccccc2n1/N=C/c1ccc([N+](=O)[O-])s1 | 2.81 µM
CC(C)(C)c1ccc(C(=O)Nc2ccc(CC(=O)O)cc2)o1 | 0.329 µM
O=C1NC2c3c(I)sc(I)c3C(=O)C2O1 (stereo not given) | 15.5 µM
CC(C)N=C(NS(=O)(=O)c1ccccc1)C(Cl)(Cl)Cl | 6.76 µM
O=[N+]([O-])/C=C\c1ccc(N2CCCC2)c(F)c1 | 13.4 µM
Cc1c(C#N)c(NC(=O)CCl)n(Cc2ccc(F)cc2)c1C | 7.16 µM
O=C(O)c1ccc(C(=O)Nc2ccc(F)cc2)cc1 | 19.8 µM
Cn1c(SCC(=O)N/N=C/c2ccc([N+](=O)[O-])s2)nnc1-c1ccccc1 | 4.28 µM
COc1cc(NC(=O)COc2ccccc2[N+](=O)[O-])ccc1NC(=O)c1cccs1 | 10.1 µM
COc1cc2c(cc1/C=C/[N+](=O)[O-])OCO2 | 8.98 µM
CC(C)Oc1ccc(C(CCNCc2ccc(O)cc2)c2ccccc2)cc1 (stereo not given) | 12.8 µM
COC(=O)CSC1=C(C#N)C(=O)NC(c2ccccc2)S1 (stereo not given) | 7.06 µM
O=c1nc(N/N=C/c2ccccn2)cn[nH]1 | 4.65 µM
O=C(Nc1ccc(OC(F)(F)F)cc1)c1[nH]ncc1[N+](=O)[O-] | 0.601 µM
COCCN(C(=O)CCl)C(C(=O)NC1CCCCC1)c1ccccc1C (stereo not given) | 17.8 µM
COc1ccc(-c2c[n+](CC(=O)OC3CC(C)CCC3C(C)C)c3n2CCC3)cc1 (stereo not given) | 4.87 µM
O=[N+]([O-])c1ccc(/C=N/Nc2ccnc3cc(Cl)ccc23)o1 | 15.3 µM
CCCN(CCC)C1=CC(=[N+]2CCCC2)CC(C)(C)C1 | 2.02 µM
O=C1c2ccccc2C(=O)c2c1ncn2-c1ccccc1 | 7.33 µM
COc1ccc(-c2nn(-c3ccccc3)cc2/C=N/N=C(N)N)cc1OC | 14.6 µM
C=CCNC1=C(Cl)C(=O)c2ccccc2C1=O | 4.06 µM
Cc1ccc(S(=O)(=O)/N=C2\C(=O)c3ccccc3C([O-])=C2n2cc[n+](CCC(C)C)c2)cc1 | 4.11 µM
